# Measurements: patent EP1433789A1, “Pyrrolopyrazines and their use as selective apoptosis inducers” (Aponetics AG, priority 2002, dated 2004)
# Legend:
# Type in all cases: cell-based, human
# H9 = experiment: Hoechst 33342 nuclear staining (Table 3); set-up: key: 0 relating to no activity; 1 relating to weak activity comprising less than 50% of the cells; score 2 relating to strong activity comprising more than 50% of the cells
# How it was run: (§1)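 Adherent cells (3-5×10^3, pre-spread 24 h) or suspension cells (8-10×10^3) treated with compounds at 10, 3, 1 and 0.3 µM for 24 or 48 h, then Hoechst 33342 stained for 30 min. Apoptotic nuclear morphology scored by fluorescence microscopy: 0 none, 1 weak (<50% cells), 2 strong (>50% cells).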
# SKMEL 1 = experiment: Hoechst 33342 nuclear staining (Table 3); set-up: key: 0 relating to no activity; 1 relating to weak activity comprising less than 50% of the cells; score 2 relating to strong activity comprising more than 50% of the cells
# How it was run: as §1
# PC-3 = experiment: Hoechst 33342 nuclear staining (Table 3); set-up: key: 0 relating to no activity; 1 relating to weak activity comprising less than 50% of the cells; score 2 relating to strong activity comprising more than 50% of the cells
# How it was run: as §1
# Jurkat = experiment: Caspase dependencies (Hoechst 33342 readout with zVAD / zFA); set-up: key: 0: no effect; 1: weak effect; 2: strong effect
# Description: (§2) This assay is performed in 96 well tissue culture plates. Appropriate number of cells (adherent cells: 3 - 5*10^3, suspension cells: 8 - 10*10^3) are being seeded out in 80 µl complete medium. Adherent cells are incubated for 24 h for proper spreading out before addition of test compounds while suspension cells are immediately treated with test compounds after seeding out. The test compounds are added in 20 µl complete medium containing max 5% DMSO. The final compound concentrations in the assays are 10 µM, 3 µM,1 µM and 0.3 µM, respectively. After 24 h or 48 h incubation at culture conditions, 10 µl medium containing Hoechst 33342 dye (Sigma B-2261) at 2-5 µg/ml are added to each well. The assay plates are then further incubated for 30 minutes and subsequently analyzed with a standard inverted fluorescence microscope. The readout allows the determination of the fraction of apoptotic nuclei as well as other morphological criteria specific for apoptosis as a function of the treatment. The following scores are used: 0 relating to no activity, 1 relating to weak activity comprising less than 50% of the cells and score 2 relating to strong activity comprising more than 50% of the cells.
# (§3) Caspase dependencies are being evaluated by combining the compound treatment with the pan-caspase inhibitor zVAD or its control peptide zFA (ICN Pharmaceuticals # FK009 and FK029, respectively). Both peptides are being used at 20 µM concentration. In case of caspase dependencies a clear inhibition of the specific readout in all apoptosis tests should be detected. By comparing the readout of zVAD and zFA treated samples with the compound control it is possible to detect caspase resp. cystein proteinase dependencies. In case of inhibition by zVAD but not by zFA a clear caspase dependency is obvious. An inhibition by zVAD as well as by zFA points towards the involvement of cystein proteinases in the apoptotic cascade. […]
# K562 = experiment: as above; set-up: key: 0: no effect; 1: weak effect; 2: strong effect
# Description: as §2, §3
# HeLa = experiment: as above; set-up: key: 0: no effect; 1: weak effect; 2: strong effect
# Description: as §2, §3
# KB = experiment: as above; set-up: key: 0: no effect; 1: weak effect; 2: strong effect
# Description: as §2, §3
structure (smiles),measurement,setting,value
"CC1(C)Cc2ccccc2-c2c(Br)c3nc4ccccc4nc3n21 [No. 2, 13-Bromo-6,6-dimethyl-5,6-dihydro-6a,7,12-triaza-dibenzo[a,h]fluorene]","Hoechst 33342 nuclear staining (fraction of apoptotic nuclei), score","H9; H9, 24h, 0.3 µM",0
same,"Hoechst 33342 nuclear staining (fraction of apoptotic nuclei), score","H9; H9, 24h, 1 µM",0
same,"Hoechst 33342 nuclear staining (fraction of apoptotic nuclei), score","H9; H9, 24h, 3 µM",0
same,"Hoechst 33342 nuclear staining (fraction of apoptotic nuclei), score","H9; H9, 24h, 10 µM",0
same,"Hoechst 33342 nuclear staining (fraction of apoptotic nuclei), score","H9; H9, 48h, 0.3 µM",0
same,"Hoechst 33342 nuclear staining (fraction of apoptotic nuclei), score","H9; H9, 48h, 1 µM",0
same,"Hoechst 33342 nuclear staining (fraction of apoptotic nuclei), score","H9; H9, 48h, 3 µM",0
same,"Hoechst 33342 nuclear staining (fraction of apoptotic nuclei), score","H9; H9, 48h, 10 µM",0
same,"Hoechst 33342 nuclear staining (fraction of apoptotic nuclei), score","SKMEL 1; SKMEL 1, 24h, 0.3 µM",0
same,"Hoechst 33342 nuclear staining (fraction of apoptotic nuclei), score","SKMEL 1; SKMEL 1, 24h, 1 µM",0
same,"Hoechst 33342 nuclear staining (fraction of apoptotic nuclei), score","SKMEL 1; SKMEL 1, 24h, 3 µM",0
same,"Hoechst 33342 nuclear staining (fraction of apoptotic nuclei), score","SKMEL 1; SKMEL 1, 24h, 10 µM",0
same,"Hoechst 33342 nuclear staining (fraction of apoptotic nuclei), score","SKMEL 1; SKMEL 1, 48h, 0.3 µM",0
same,"Hoechst 33342 nuclear staining (fraction of apoptotic nuclei), score","SKMEL 1; SKMEL 1, 48h, 1 µM",0
same,"Hoechst 33342 nuclear staining (fraction of apoptotic nuclei), score","SKMEL 1; SKMEL 1, 48h, 3 µM",0
same,"Hoechst 33342 nuclear staining (fraction of apoptotic nuclei), score","SKMEL 1; SKMEL 1, 48h, 10 µM",0
same,"Hoechst 33342 nuclear staining (fraction of apoptotic nuclei), score","PC-3; PC-3, 24h, 0.3 µM",0
same,"Hoechst 33342 nuclear staining (fraction of apoptotic nuclei), score","PC-3; PC-3, 24h, 1 µM",0
same,"Hoechst 33342 nuclear staining (fraction of apoptotic nuclei), score","PC-3; PC-3, 24h, 3 µM",0
same,"Hoechst 33342 nuclear staining (fraction of apoptotic nuclei), score","PC-3; PC-3, 24h, 10 µM",0
same,"Hoechst 33342 nuclear staining (fraction of apoptotic nuclei), score","PC-3; PC-3, 48h, 0.3 µM",0
same,"Hoechst 33342 nuclear staining (fraction of apoptotic nuclei), score","PC-3; PC-3, 48h, 1 µM",0
same,"Hoechst 33342 nuclear staining (fraction of apoptotic nuclei), score","PC-3; PC-3, 48h, 3 µM",0
same,"Hoechst 33342 nuclear staining (fraction of apoptotic nuclei), score","PC-3; PC-3, 48h, 10 µM",2 (score 2 relating to strong activity comprising more than 50% of the cells)
same,nuclear fragmentation visualized by Hoechst 33342 staining,"Jurkat; 24h, conc 3, no peptide",2
same,nuclear fragmentation visualized by Hoechst 33342 staining,"Jurkat; 24h, conc 3, with zFA 20 µM",2
same,nuclear fragmentation visualized by Hoechst 33342 staining,"Jurkat; 24h, conc 3, with zVAD 20 µM",2
same,nuclear fragmentation visualized by Hoechst 33342 staining,"Jurkat; 48h, conc 3, no peptide",2
same,nuclear fragmentation visualized by Hoechst 33342 staining,"Jurkat; 48h, conc 3, with zFA 20 µM",2
same,nuclear fragmentation visualized by Hoechst 33342 staining,"Jurkat; 48h, conc 3, with zVAD 20 µM",2
same,nuclear fragmentation visualized by Hoechst 33342 staining,"K562; K562, 24h, conc 10, no peptide",2
same,nuclear fragmentation visualized by Hoechst 33342 staining,"K562; K562, 24h, conc 10, with zFA 20 µM",2
same,nuclear fragmentation visualized by Hoechst 33342 staining,"K562; K562, 24h, conc 10, with zVAD 20 µM",2
same,nuclear fragmentation visualized by Hoechst 33342 staining,"K562; K562, 48h, conc 10, no peptide",2
same,nuclear fragmentation visualized by Hoechst 33342 staining,"K562; K562, 48h, conc 10, with zFA 20 µM",2
same,nuclear fragmentation visualized by Hoechst 33342 staining,"K562; K562, 48h, conc 10, with zVAD 20 µM",2
same,nuclear fragmentation visualized by Hoechst 33342 staining,"HeLa; 24h, conc 10, no peptide",2
same,nuclear fragmentation visualized by Hoechst 33342 staining,"HeLa; 24h, conc 10, with zFA 20 µM",2
same,nuclear fragmentation visualized by Hoechst 33342 staining,"HeLa; 24h, conc 10, with zVAD 20 µM",1
same,nuclear fragmentation visualized by Hoechst 33342 staining,"HeLa; 48h, conc 10, no peptide",2
same,nuclear fragmentation visualized by Hoechst 33342 staining,"HeLa; 48h, conc 10, with zFA 20 µM",2
same,nuclear fragmentation visualized by Hoechst 33342 staining,"HeLa; 48h, conc 10, with zVAD 20 µM",2
same,nuclear fragmentation visualized by Hoechst 33342 staining,"KB; 24h, conc 10, no peptide",2
same,nuclear fragmentation visualized by Hoechst 33342 staining,"KB; 24h, conc 10, with zFA 20 µM",1
same,nuclear fragmentation visualized by Hoechst 33342 staining,"KB; 24h, conc 10, with zVAD 20 µM",1
same,nuclear fragmentation visualized by Hoechst 33342 staining,"KB; 48h, conc 10, no peptide",2
same,nuclear fragmentation visualized by Hoechst 33342 staining,"KB; 48h, conc 10, with zFA 20 µM",2
same,nuclear fragmentation visualized by Hoechst 33342 staining,"KB; 48h, conc 10, with zVAD 20 µM",2
